The test system of data set [1] is Staphylococcus aureus. As to the kind of experiment: Antibacterial activity against Staphylococcus aureus MTCC-96 assessed as reduction in bacterial growth incubated for 14 to 16 hrs by microbroth dilution method. The format is functional. Conditions: time 14-16 hrs. (In general: In broth dilution the organism is exposed to a series of concentrations in liquid medium.)

Data set [2] relates to Staphylococcus aureus. The data set can be described thus: Antibacterial activity against Staphylococcus aureus MTCC-96 assessed as reduction in bacterial growth incubated for 14 to 16 hrs in presence of 100 to 400 uM MgCl2 by microbroth dilution method. The data set is classed as functional, organism-based. As to conditions: time 14-16 hrs.
For data set [3], the system named is Staphylococcus aureus. As to the kind of experiment: Disruption of membrane integrity in Staphylococcus aureus MTCC-96 assessed as change in cocci shape in presence of Zn2+ ion by FE-SEM analysis. The data set is classed as functional, organism-based.
A further data set has as its system MCF7. The data set can be described thus: Cytotoxicity against human MCF7 cells assessed as reduction in cell viability at 1 to 100 uM incubated for 44 hrs by MTT assay. The format is toxicity, cell-based. As to conditions: mcf7, 44 h, dose 1-100 µM. (In general: Tetrazolium dyes change colour on reduction, which living cells bring about.)
Data set [4] deals with Lipid bilayer. The data set can be described thus: Induction of ionophore activity across EYPC:CHOL (8:2) large unilamellar vesicles assessed as transmembrane anion transport by measuring decrease in fluorescence intensity for HPTS dye preincubated for 3 mins followed by ZnSO4 addition and mesured after 7.5 mins by HPTS dye based fluorescence spectrophotometric analysis. Conditions: filed as opener; time 10.5 min.

Data set [5] concerns Staphylococcus aureus. As to the kind of experiment: Antibacterial activity against Staphylococcus aureus MTCC-96 assessed as reduction in bacterial growth incubated for 14 to 16 hrs in presence of 100 to 400 uM CaCl2 by microbroth dilution method. The data set is classed as functional, organism-based. As to conditions: time 14-16 hrs.
The test system of data set [6] is Staphylococcus aureus. As to the kind of experiment: Antibacterial activity against Staphylococcus aureus MTCC-96 assessed as reduction in bacterial growth incubated for 14 to 16 hrs in presence of 100 to 400 uM MnCl2 by microbroth dilution method. The format is functional, organism-based. Conditions: time 14-16 hrs.
Data set [7] relates to Staphylococcus aureus. The data set can be described thus: Bactericidal activity against Staphylococcus aureus MTCC-96 at 2 times MIC incubated for 2 hrs in presence of ZnCl2 by time kill assay. The format is functional, organism-based.
The test system of the next data set is Erythrocyte. As to the kind of experiment: Hemolytic activity in human Red blood cells assessed as hemolysis rate at 1.6 to 50 uM incubated for 1 to 24 hrs in presence of ZnCl2 by absorbance based analysis. The format is toxicity, cell-based. As to conditions: dose lower 1.6 µM, time lower 1 hrs, dose upper 50 µM, time upper 24 hrs.
Data set [8] concerns Lipid bilayer. As to the kind of experiment: Induction of ionophore activity across EYPC:CHOL (8:2) large unilamellar vesicles assessed as transmembrane cation transport by measuring decrease in fluorescence intensity for HPTS dye preincubated for 3 mins followed by NaCl addition and mesured after 7.5 mins by HPTS dye based fluorescence spectrophotometric analysis. As to conditions: time 10.5 min.

A further data set concerns MCF-10A. As to the kind of experiment: Cytotoxicity against human MCF-10A cells assessed as reduction in cell viability at 1 to 100 uM incubated for 44 hrs by MTT assay. The format is toxicity, cell-based. As to conditions: dose 1-100 µM.
The test system of a further data set is Escherichia coli. The data set can be described thus: Antibacterial activity against Escherichia coli MTCC 1687 assessed as reduction in bacterial growth incubated for 14 to 16 hrs by microbroth dilution method. Conditions: time 14-16 hrs. The data set is classed as functional.
For another data set, the system named is MDA-MB-231. The data set can be described thus: Cytotoxicity against human MDA-MB-231 cells assessed as reduction in cell viability at 1 to 100 uM incubated for 44 hrs by MTT assay. The format is toxicity, cell-based. Conditions: mda-mb-231, 44 h, dose 1-100 µM.
The subject of data set [9] is Staphylococcus aureus. The data set can be described thus: In vivo antibacterial activity against Staphylococcus aureus MTCC-96 infected in Balb/c mouse assessed as normal architecture of central vein in liver tissue at 31.6 microM/Kg, iv for 7 days in presence of ZnCl2 by hematoxylin and eosin staining based microscopic analysis. The format is functional, organism-based. As to conditions: time 7.0 day.

The test system of data set [10] is Staphylococcus aureus. As to the kind of experiment: In vivo antibacterial activity against Staphylococcus aureus MTCC-96 infected in Balb/c mouse assessed as uniform distribution of sinusoids in liver tissue at 31.6 microM/Kg, iv for 7 days in presence of ZnCl2 by hematoxylin and eosin staining based microscopic analysis. As to conditions: time 7.0 day. The format is functional, organism-based.

Data set [11] relates to Staphylococcus aureus. The data set can be described thus: In vivo antibacterial activity against Staphylococcus aureus MTCC-96 infected in Balb/c mouse assessed as normal architecture of hepatic artery in liver tissue at 31.6 microM/Kg, iv for 7 days in presence of ZnCl2 by hematoxylin and eosin staining based microscopic analysis. The data set is classed as functional, organism-based. As to conditions: time 7.0 day.

Data set [12] concerns Staphylococcus aureus. As to the kind of experiment: In vivo antibacterial activity against Staphylococcus aureus MTCC-96 infected in Balb/c mouse assessed as less dilated hepatic artery at 156.5 microM/Kg, iv for 7 days by hematoxylin and eosin staining based microscopic analysis. The format is functional, organism-based. Conditions: time 7.0 day.
The subject of another data set is PBMC. The data set can be described thus: Cytotoxicity against human PBMC cells assessed as reduction in cell viability at 12.5 to 200 uM incubated for 24 hrs by MTT assay. The data set is classed as toxicity, cell-based. Conditions: dose 12.5-200 µM.
For data set [13], the system named is Staphylococcus aureus. The data set can be described thus: In vivo antibacterial activity against Staphylococcus aureus MTCC-96 infected in Balb/c mouse assessed as uniform distribution of sinusoids in liver tissue at 156.5 microM/Kg, iv for 7 days by hematoxylin and eosin staining based microscopic analysis. The data set is classed as functional, organism-based. Conditions: time 7.0 day.

Data set [14] deals with Staphylococcus aureus. As to the kind of experiment: In vivo antibacterial activity against Staphylococcus aureus MTCC-96 infected in Balb/c mouse assessed as normal architecture of bile duct in liver tissue at 31.6 microM/Kg, iv for 7 days in presence of ZnCl2 by hematoxylin and eosin staining based microscopic analysis. The format is functional, organism-based. As to conditions: time 7.0 day.

The test system of data set [15] is Lipid bilayer. The data set can be described thus: Induction of ionophore activity across EYPC:CHOL (8:2) large unilamellar vesicles assessed as transmembrane Zn2+ ion transport by measuring decrease in fluorescence intensity for HPTS dye at 10 uM preincubated for 3 mins in presence of FCCP followed by ZnCl2 addition and mesured after 7.5 mins by HPTS dye based fluorescence spectrophotometric analysis. Conditions: filed as opener, time 10.5 min.

For data set [16], the system named is Staphylococcus aureus. The data set can be described thus: In vivo antibacterial activity against Staphylococcus aureus MTCC-96 infected in Balb/c mouse assessed as reduction in bacterial load by measuring CFU in liver at 31.6 microM/Kg, iv for 7 days in presence of ZnCl2 by CFU assay. The data set is classed as functional, organism-based. Conditions: time 7.0 day.

Data set [17] concerns Staphylococcus aureus. The data set can be described thus: In vivo antibacterial activity against Staphylococcus aureus MTCC-96 infected in Balb/c mouse assessed as less dilated portal vein in liver at 156.5 microM/Kg, iv for 7 days by hematoxylin and eosin staining based microscopic analysis. Conditions: time 7.0 day. The data set is classed as functional, organism-based.

In data set [18] the test system is Staphylococcus aureus. The data set can be described thus: Bactericidal activity against Staphylococcus aureus MTCC-96 at 2 times MIC incubated for 1 hrs by time kill assay. The format is functional, organism-based.
Data set [19] concerns Staphylococcus aureus. As to the kind of experiment: Antibacterial activity against gentamicin-and methicillin-resistant Staphylococcus aureus ATCC 33592 assessed as reduction in bacterial growth incubated for 14 to 16 hrs in presence of 200 uM ZnCl2 by microbroth dilution method. The format is functional. Conditions: time 14-16 hrs.
Data set [20] relates to Staphylococcus aureus. The data set can be described thus: In vivo antibacterial activity against Staphylococcus aureus MTCC-96 infected in Balb/c mouse assessed as bacterial load by measuring CFU in spleen at 156.5 microM/Kg, iv for 7 days by CFU assay. The data set is classed as functional, organism-based. As to conditions: time 7.0 day.
The nature of data set [21]: Binding affinity to Zn2+ ion assessed as binding constant by Benesi-Hildebrand equation analysis. Conditions: […].
The test system of data set [22] is Lipid bilayer. The data set can be described thus: Induction of ionophore activity across EYPC:CHOL (8:2) large unilamellar vesicles assessed as transmembrane Zn2+ ion transport by measuring decrease in fluorescence intensity for HPTS dye preincubated for 3 mins followed by ZnCl2 addition and mesured after 7.5 mins by HPTS dye based fluorescence spectrophotometric analysis.

Data set [23] deals with Staphylococcus aureus. As to the kind of experiment: In vivo antibacterial activity against Staphylococcus aureus MTCC-96 infected in Balb/c mouse assessed as uniform distribution of hepatocytes in liver tissue at 156.5 microM/Kg, iv for 7 days by hematoxylin and eosin staining based microscopic analysis. As to conditions: time 7.0 day. The format is functional, organism-based.

Data set [24] deals with Staphylococcus aureus. The data set can be described thus: In vivo antibacterial activity against Staphylococcus aureus MTCC-96 infected in Balb/c mouse assessed as normal morphology of spleen tissue at 31.6 microM/Kg, iv for 7 days in presence of ZnCl2 by hematoxylin and eosin staining based microscopic analysis. The data set is classed as functional, organism-based. As to conditions: time 7.0 day.

This is an account of results in ChEMBL document CHEMBL5360614, “Quinoline Thiourea-Based Zinc Ionophores with Antibacterial Activity” (J Med Chem, 2023).

≈ marks a conversion by molar mass, not a printed value. Calls of active or inactive are those of the source. The rule behind the calls is not given here. A value given as a limit tells only on which side of the number the result lay.

One may read the MIC as the least concentration at which growth counts as inhibited. As to `FC(F)(F)c1cc(NC(=S)Nc2cccc3cccnc23)cc(C(F)(F)F)c1`, the MIC in the data set with Staphylococcus aureus [1] was 3.13 µM (≈ 1.3 µg/mL); in the data set on Escherichia coli it was above 50 µM. Moreover, the outcome in the data set with Staphylococcus aureus [2], in the data set with Staphylococcus aureus [3], in the data set with Staphylococcus aureus [5], with Staphylococcus aureus [6] and in the data set with Lipid bilayer [8] was inactive. In addition, the Activity entry in the data set with MCF7, in the data set on Erythrocyte, in the data set with MCF-10A and in the data set with MDA-MB-231 was “Non-Toxic” in each case. The result in the data set with Lipid bilayer [4] and in the data set with Staphylococcus aureus [7] was Active.

One may read the EC50 as the concentration giving half of the maximal effect. Take `FC(F)(F)c1cc(NC(=S)Nc2cccc3ccc(-n4cnc5ccccc54)nc23)cc(C(F)(F)F)c1`: the figures for the MIC in the data set on Staphylococcus aureus [1], in the data set with Staphylococcus aureus [19] and with Escherichia coli were 3.13 µM (≈ 1.66 µg/mL), 2 µM and above 50 µM, respectively. The outcome in the data set with Staphylococcus aureus [2], with Staphylococcus aureus [3], in the data set on Staphylococcus aureus [5], with Staphylococcus aureus [6] and with Lipid bilayer [8] was inactive. Further, the result with Staphylococcus aureus [9], with Staphylococcus aureus [10], in the data set with Staphylococcus aureus [11], in the data set with Staphylococcus aureus [12], in the data set with Lipid bilayer [4] and with Staphylococcus aureus [13] was Active. Moreover, the outcome with Staphylococcus aureus [14], in the data set with Lipid bilayer [15], in the data set on Staphylococcus aureus [16], with Staphylococcus aureus [17], in the data set on Staphylococcus aureus [18] and in the data set on Staphylococcus aureus [20] was Active. In addition, the result in the data set on Staphylococcus aureus [23] and in the data set on Staphylococcus aureus [24] was Active. Moreover, the Activity entry in the data set with MCF7, with PBMC, with Erythrocyte, in the data set on MCF-10A and in the data set with MDA-MB-231 was “Non-Toxic” throughout. In data set [21], the K is 1.36 10^3/M. Also, the EC50 in the data set on Lipid bilayer [22] is 5.49 µM.
